From patent US5234922A, “Use of sulfonylureas and other potassium channel regulators to treat secretory diarrhea” (University of Iowa Research Foundation, priority 1992, dated 1993)
Where a name gives a salt, the structure may show the parent alone. Read-outs that look alike come from different tables or passages of the source.

Target: T1, wild-type human CFTR (Homo sapiens, UniProt P13569)
T1 construct: expressed in transfected cells; host or cells: NIH 3T3 fibroblasts (stably infected with a retrovirus)
T1 sequence (P13569 whole entry): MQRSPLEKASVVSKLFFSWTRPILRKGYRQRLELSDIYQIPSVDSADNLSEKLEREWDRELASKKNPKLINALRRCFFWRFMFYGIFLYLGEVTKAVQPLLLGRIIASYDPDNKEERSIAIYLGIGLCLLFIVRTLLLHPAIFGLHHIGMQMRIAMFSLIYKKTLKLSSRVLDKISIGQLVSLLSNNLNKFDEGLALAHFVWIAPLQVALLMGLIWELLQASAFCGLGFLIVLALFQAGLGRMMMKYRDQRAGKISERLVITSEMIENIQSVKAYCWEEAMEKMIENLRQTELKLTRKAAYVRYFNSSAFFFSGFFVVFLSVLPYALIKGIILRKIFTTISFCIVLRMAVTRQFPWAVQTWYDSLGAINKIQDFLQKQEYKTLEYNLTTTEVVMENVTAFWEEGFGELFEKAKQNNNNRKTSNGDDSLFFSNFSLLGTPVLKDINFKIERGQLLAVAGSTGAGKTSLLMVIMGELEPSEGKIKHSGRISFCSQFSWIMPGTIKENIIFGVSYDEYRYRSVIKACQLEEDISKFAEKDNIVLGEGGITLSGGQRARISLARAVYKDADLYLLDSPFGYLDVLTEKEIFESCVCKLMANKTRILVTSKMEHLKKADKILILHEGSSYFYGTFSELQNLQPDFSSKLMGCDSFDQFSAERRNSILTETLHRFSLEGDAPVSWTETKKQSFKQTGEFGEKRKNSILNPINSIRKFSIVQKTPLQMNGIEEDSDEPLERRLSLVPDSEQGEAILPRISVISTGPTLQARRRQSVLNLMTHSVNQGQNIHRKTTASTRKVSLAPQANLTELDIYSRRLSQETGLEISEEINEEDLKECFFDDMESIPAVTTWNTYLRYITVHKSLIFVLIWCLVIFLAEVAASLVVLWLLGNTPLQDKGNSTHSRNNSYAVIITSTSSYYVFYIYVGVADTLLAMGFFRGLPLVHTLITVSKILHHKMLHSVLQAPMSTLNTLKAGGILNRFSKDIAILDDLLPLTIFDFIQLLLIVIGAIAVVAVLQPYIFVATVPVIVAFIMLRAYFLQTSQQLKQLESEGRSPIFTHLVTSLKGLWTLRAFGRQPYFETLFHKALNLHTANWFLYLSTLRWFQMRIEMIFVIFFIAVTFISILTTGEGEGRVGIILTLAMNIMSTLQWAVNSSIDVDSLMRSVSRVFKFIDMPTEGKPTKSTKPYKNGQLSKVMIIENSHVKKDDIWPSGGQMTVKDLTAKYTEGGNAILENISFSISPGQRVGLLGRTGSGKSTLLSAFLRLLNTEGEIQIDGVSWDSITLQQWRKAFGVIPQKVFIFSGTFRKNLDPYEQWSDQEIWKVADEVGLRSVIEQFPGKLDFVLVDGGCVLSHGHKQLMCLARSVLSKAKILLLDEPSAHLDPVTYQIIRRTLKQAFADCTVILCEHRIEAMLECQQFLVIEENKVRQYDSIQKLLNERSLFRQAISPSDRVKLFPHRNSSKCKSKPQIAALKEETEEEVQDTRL
Assay: Whole-cell patch-clamp recording of cAMP-activated CFTR Cl- currents in NIH 3T3 fibroblasts expressing recombinant CFTR
Assay type: cell-based
Details: for inhibition at 1000 µM: 1 mM; for effect on baseline currents: before cAMP stimulation, n=3; for effect on Cl- current previously activated by cAMP agonists: added to the bathing solution after activation; for relative potency of inhibition of CFTR Cl- currents: rank order among K+ channel openers

[1] = NIH3T3, 3 min after adding, currents activated by cAMP agonists
[2] = NIH3T3, 250 μM, 3 min after adding, currents activated by cAMP agonists

Compound	inhibition at 250 µM [2] [%]	effect on Cl- current previously activated by cAMP agonists	relative potency of inhibition of CFTR Cl- currents	inhibition at 1000 µM [1] [%]	other results
CCCCNC(=O)NS(=O)(=O)c1ccc(C)cc1 [tolbutamide]				> 90	voltage dependence of inhibition of CFTR Cl- currents (500 μM): little voltage dependence; effect on CFTR Cl- currents (500 μM, currents activated by cAMP agonists): inhibited; reversibility of inhibition of CFTR Cl- currents on washing (washes lasting >10 min): partially recovered
COc1ccc(Cl)cc1C(=O)NCCc1ccc(S(=O)(=O)NC(=O)NC2CCCCC2)cc1 [glibenclamide]					inhibition at 100 µM (NIH3T3, read-out: inhibition of CFTR Cl- currents): > 90%; reversibility of inhibition of CFTR Cl- currents on washing (prolonged washing): irreversible
CC1=NS(=O)(=O)c2cc(Cl)ccc2N1 [diazoxide]	> 70	inhibited		> 70	effect on baseline currents (100-1,000 μM): no effect

Further lines, with some results ahead:

inhibition at 250 µM [2] [%]	effect on Cl- current previously activated by cAMP agonists	relative potency of inhibition of CFTR Cl- currents	Compound	inhibition at 1000 µM [1] [%]	other results
> 70	inhibited	more potent than diazoxide	CC1(C)Oc2ccc(C#N)cc2[C@@H](N2CCCC2=O)[C@@H]1O [lemakalim]		effect on baseline currents (250 μM): no effect
	inhibited	more potent than lemakalim	Nc1cc(N2CCCCC2)nc(N)[n+]1OS(=O)(=O)[O-] [minoxidil sulfate]		effect on baseline currents (10-500 μM): no effect; inhibition at 100 µM (NIH3T3, 100 μM, 3 min after adding, currents activated by cAMP agonists, read-out: inhibition of CFTR Cl- currents): > 70%
